From US20220098228A1, “METHODS AND COMPOSITIONS FOR IMPROVING THE IMMUNE SYSTEM AND PROVIDING IMMUNO-PROTECTION” (Natreon, Inc., priority 2020, published 2022)
Marks after values point to notes of the source that are not given here.

Key:
peritoneal macrophages [1] = assay: Peritoneal macrophage viability, trypan blue exclusion (Example III); format: in vivo, Swiss albino mice
Description: (§1) Male and female Swiss albino mice (n=8; 4 from each gender) weighing approximately 25±5 g, were obtained from National Research Institute of Ayurveda for Drug Development (Govt. of India), Kolkata, and were housed in polypropylene cages at 22±3° C., relative air humidity of 45 to 55%, with 12.00 h light & dark cycle (lighting on from 6:00 AM to 6:00 PM). […] The mice were acclimatized for one week in the laboratory conditions, before being used in the experiment. All experiments were conducted between 10.00 h and 14.00 h. Principles of laboratory animal care (NIH publication no. 85-23, revised 1985) was followed.
(§2) Cyclophosphamide was dissolved in distilled water and the mice were administered a single exposure (250 mg/kg, i.p.) on day 1.
(§3) 3-OH-DBP, 3,8-(OH)2-DBP, and combined 3-OH-DBP+3,8-(OH)2-DBP were administered once daily for 7 days starting from day 1. Following 7 days of treatment the mice were anaesthetized and sacrificed under anaesthesia followed by collection of peritoneal macrophages and spleen (for splenocyte isolation).
(§4) Swiss albino mice were randomly divided into 8 Groups (n=8; 4 from each gender). […] (2:10) (12 mg/kg b.w., p.o.), Group VI mice were administered 3-OH-DBP (10 mg/kg b.w., p.o.), Group VII mice were administered 3,8-(OH)2-DBP (50 mg/kg b.w., p.o.), Group VIII mice were administered [3-OH-DBP+3,8-(OH)2-DBP] (10:50) (60 mg/kg b.w., p.o.).
(§5) All the animals were sacrificed under ether anesthesia and peritoneal macrophages were lavaged using ice cold phosphate buffer saline (PBS: 0.15 M NaCl; pH: 7.4). After centrifugation (3000 rpm×10 min) at 4° C., pellets were re-suspended in PBS and cell viability was confirmed by trypan blue exclusion assay.
(§6) Results were expressed in terms of mean±SEM (n=8; 4 from each gender). Data were subjected to one way ANOVA followed by Tukey's test using GraphPad Prism 4.0 software to establish statistical significance (*p<0.05, **p<0.01, ***p<0.001, where * refers to comparison with Group I vehicle control; #p<0.05, ##p<0.01, ###p<0.001, where #refers to comparison with Group II cyclophosphamide administration; ^ap<0.05, ^aap<0.01, ^aap<0.01, where a refers to comparison of Day 7 with Day 0).

peritoneal macrophages [2] = assay: NBT reduction of peritoneal macrophages (Example III); format: in vivo, Swiss albino mice; details: for NBT reduction compared with vehicle control: cyclophosphamide, 3-OH-DBP 2 and 10 mg/kg, combined 12 mg/kg
Description: as §1, §2, §3, §4, §5
Preparation of NBT solution: 0.2% NBT (nitroblue tetrazolium) in PBS (pH 7.4), 5% dextrose and HBSS. These three solutions were mixed in 6:2:4 ratios.
0.5 ml of NBT solution was added to 0.5 ml of peritoneal macrophages (1×10^6 cells/ml) in micro-centrifuge tube. This mixture was incubated at 37° C. for 2 hours. The cell suspension was centrifuged at 2000 rpm for 10 minutes. Supernatants were discarded and pellets were re-suspended in 1 ml of DMSO. The tubes were kept in boiling water bath for 10 minutes and then cooled and centrifuged at 2000 rpm for 10 minutes. The supernatants were collected and absorbance was measured at 515 nm.
as §6

splenocytes [3] = assay: Cell viability of splenocytes, trypan blue exclusion, cyclophosphamide-induced immunosuppression (Example II); format: in vivo, Swiss albino mice; details: 10 mg/kg body weight p.o. 7 days + cyclophosphamide 250 mg/kg i.p.; Mean ± SD, n = 6
Description: (§7) The mice were acclimatized for one week in the laboratory conditions, before being used in the experiment. All experiments were conducted between 10.00 hr and 14.00 hr. Principles of laboratory animal care (NIH publication no. 85-23, revised 1985) were followed.
(§8) All test compounds (DBPs and DBP glycosides) were suspended in 0.3% of CMC (Carboxymethyl Cellulose) solutions of distilled water and were administered orally for 7 days by using an intubation canula. The volume of dose was 100 μl/10 g body weight. Cyclophosphamide was dissolved in distilled water and was injected (250 mg/kg, i.p.) on day one and volume of dose was 100 μl/10 g body weight. Control animals received equivalent volume of the vehicles CMC (0.3%) solutions only.
Spleen was collected. Single cell suspension was prepared by mincing and tapping the spleen fragments on stainless steel 200-mesh in ice cold phosphate buffer saline (PBS: 0.15M NaCl pH 7.4). Cell suspension was centrifuged at 2000 rpm for 10 minutes. The pellet was re-suspended in PBS and cell viability was confirmed by trypan blue exclusion method.

splenocytes [4] = assay: Splenocyte viability, trypan blue exclusion (Example III); format: in vivo, Swiss albino mice; details: for % Viability Day7, splenocyte viability: Day 7
Description: as §1, §2, §3, §4
Spleens were collected and single cell suspension was prepared by mincing and tapping the spleen fragments on stainless steel 200-mesh in ice cold phosphate buffer saline (PBS: 0.15M NaCl; pH: 7.4). Cell suspensions were centrifuged at 2000 rpm for 10 minutes.
as §6

[5] = mouse, in vivo
Description: as §1, §2, §3, §4, §6

peritoneal macrophages [6] = assay: NBT reduction assay in peritoneal macrophages, cyclophosphamide-induced immunosuppression (Example II); format: in vivo, Swiss albino mice
Description: as §7, §8
On day seven all the animals were sacrificed under ether anesthesia and peritoneal macrophages were lavaged using ice cold phosphate buffer saline (PBS: 0.15M NaCl pH-7.4). After centrifugation (3000 rpm×10 min) at 4° C. the pellet was re-suspended in PBS and cell viability was confirmed by trypan blue exclusion method. (Bala A, Haldar P K, Kar B, Naskar S and Mazumder U K, “Carbon tetrachloride: A hepatotoxin causes oxidative stress in murine peritoneal macrophage and peripheral blood lymphocyte cells” Immunopharmacol. and Immunotoxicol. 34(1): 157-162 (2012)).
Preparation of NBT solution: 0.2% NBT (nitroblue tetrazolium) in PB (Phosphate Buffer, pH 7.4), 5% dextrose and HBSS (Hank's balanced salt solution). The three solutions were mixed in 6:2:4 ratios. (Saxena A K, Singh K P, Srivastava S N, Shukla L J and Shanker R., “Immunomodulating effects of caffeine in rodents” Ind J Exptl Biol. 22: 298-301 (1984)).
Method: 0.5 ml of NBT solution was added to 0.5 ml of peritoneal macrophages (1×10^6 cells/ml) in a micro-centrifuge tube. This mixture was incubated at 37° C. for 45 minutes. The cell suspension was centrifuged at 1500 rpm for 10 minutes. Supernatant was discarded and pellet was re-suspended in 2 ml of DMSO. The tubes were kept in a boiling water bath for 10 minutes. The tubes were again centrifuged at 1500 rpm for 10 minutes. The supernatant was collected, and absorbance was measured at 515 nm.

[7] = female mice, 3-OH-DBP 2 and 10 mg/kg, 3,8-(OH)2-DBP 10 and 50 mg/kg, combined 12 and 60 mg/kg
[8] = female mice, 2 mg/kg p.o. + cyclophosphamide 250 mg/kg i.p.
[9] = female mice, 10 mg/kg p.o. + cyclophosphamide 250 mg/kg i.p.
[10] = male mice, 3-OH-DBP 10 mg/kg, 3,8-(OH)2-DBP 50 mg/kg, combined 60 mg/kg
[11] = male mice, 2 mg/kg p.o. + cyclophosphamide 250 mg/kg i.p.
[12] = male mice, 10 mg/kg p.o. + cyclophosphamide 250 mg/kg i.p.

Compound: O=c1oc2cc(O)ccc2c2ccccc12 [3-OH-DBP, 3-hydroxy-dibenzo-alpha-pyrone]
- peritoneal macrophage viability compared with cyclophosphamide treated mice (peritoneal macrophages [1]; [7]): significantly (p<0.05, p<0.01) increased
- % Viability Day 7, peritoneal macrophage viability (peritoneal macrophages [1]; [8]): 62.53 ± 2.14** %
- % Viability Day 7, peritoneal macrophage viability (peritoneal macrophages [1]; [9]): 72.56 ± 2.01^# %
- peritoneal macrophage viability compared with cyclophosphamide treated mice (peritoneal macrophages [1]; [10]): significantly (p<0.05, p<0.01) increased
- % Viability Day 7, peritoneal macrophage viability (peritoneal macrophages [1]; [11]): 59.90 ± 0.51* %
- % Viability Day 7, peritoneal macrophage viability (peritoneal macrophages [1]; [12]): 69.64 ± 2.77# %
- peritoneal macrophage viability compared with vehicle control (peritoneal macrophages [1]; male mice, cyclophosphamide, 3-OH-DBP 2 mg/kg, 3,8-(OH)2-DBP 10 mg/kg): significantly (p<0.05) decreased
- NBT reduction compared with cyclophosphamide treated mice (peritoneal macrophages [2]; female mice, 3-OH-DBP 10 mg/kg, 3,8-(OH)2-DBP 50 mg/kg, combined 12 and 60 mg/kg): significantly (p<0.05, p<0.01, p<0.001) increased
- O.D. (515 nm) Day 7, NBT reduction of peritoneal macrophages (peritoneal macrophages [2]; [8]): 0.142 ± 0.005***
- O.D. (515 nm) Day 7, NBT reduction of peritoneal macrophages (peritoneal macrophages [2]; [9]): 0.207 ± 0.02**,##
- NBT reduction compared with vehicle control (peritoneal macrophages [2]; female mice, 3,8-(OH)2-DBP 10 and 50 mg/kg): significantly (p<0.05, p<0.01, p<0.001) decreased
- O.D (515 nm) Day 7, NBT reduction of peritoneal macrophages (peritoneal macrophages [2]; [11]): 0.257 ± 0.02338***
- O.D (515 nm) Day 7, NBT reduction of peritoneal macrophages (peritoneal macrophages [2]; [12]): 0.232 ± 0.04097***
- NBT reduction compared with vehicle control (peritoneal macrophages [2]; male mice, 3,8-(OH)2-DBP 10 mg/kg): significantly (p<0.01, p<0.001) decreased
- % Cell Viability of splenocytes (splenocytes [3]): 59.70 ± 3.59%
- splenocyte viability compared with cyclophosphamide treated mice (splenocytes [4]; [7]): significantly (p<0.05, p<0.01, p<0.001) increased
- % Viability Day7, splenocyte viability (splenocytes [4]; [8]): 88.40 ± 1.61# %
- % Viability Day7, splenocyte viability (splenocytes [4]; [9]): 90.77 ± 1.77## %
- splenocyte viability compared with cyclophosphamide treated mice (splenocytes [4]; [10]): significantly higher
- % Viability Day7, splenocyte viability (splenocytes [4]; [11]): 69.34 ± 1.84*** %
- % Viability Day7, splenocyte viability (splenocytes [4]; [12]): 80.9 ± 1.24## %
- splenocyte viability compared with vehicle control (splenocytes [4]; male mice, cyclophosphamide, 2 mg/kg 3-OH-DBP, 10 mg/kg 3,8-(OH)2-DBP, 12 mg/kg combined): similarly decreased
- feed intake Day 7 in comparison to Day 0 [5]: significantly (p<0.05, p<0.01) decreased
- feed intake compared to vehicle control [5]: significantly (p<0.05, p<0.01) decreased
- water intake compared with cyclophosphamide treated mice [5]: significantly (p<0.001) decreased
- water intake compared with vehicle control [5]: significantly (p<0.001) decreased
- water intake compared with vehicle control and cyclophosphamide treated mice [5]: significantly (p<0.05, p<0.001) decreased
- OD (515 nm), NBT reduction assay in peritoneal macrophages (peritoneal macrophages [6]; 10 mg/kg body weight p.o. 7 days + cyclophosphamide 250 mg/kg i.p., Mean ± SD, n = 6): 0.154 ± 0.019
- improvement in NBT reduction capacity (peritoneal macrophages [6]; 10 mg/kg body weight p.o., in comparison with cyclophosphamide treated mice): moderate (p<0.05) improvement
